# Laboratory results taken from ChEMBL document CHEMBL2034860, “Cytotoxic heterocyclic triterpenoids derived from betulin and betulinic acid” (Bioorg Med Chem, 2012).
# Tested on: not listed separately
# Assay: Solubility of the compound in water based media
# Format: physicochemical
# Conditions: buffer
row,Structure (SMILES),solubility
1,CC(C)[C@@H]1CC[C@]2(C(=O)O)CC[C@]3(C)[C@H](CC[C@@H]4[C@@]5(C)Cc6c(n[nH]c6O)C(C)(C)[C@@H]5CC[C@]43C)[C@@H]12,Insoluble
2,"C=C(C)[C@@H]1CC[C@]2(C(=O)O)CC[C@]3(C)[C@H](CC[C@@H]4[C@@]5(C)Cc6c(n[nH]c6O)C(C)(C)C5CC[C@]43C)[C@@H]12 (single isomer, unassigned)",Insoluble
3,C=C(C)[C@@H]1CC[C@]2(C(=O)O)CC[C@]3(C)[C@H](CC[C@@H]4[C@@]5(C)Cc6cnn(-c7ccccc7)c6C(C)(C)[C@@H]5CC[C@]43C)[C@@H]12,Insoluble
4,CC(C)[C@@H]1CC[C@]2(C(=O)O)CC[C@]3(C)[C@H](CC[C@@H]4[C@@]5(C)Cc6cnn(-c7ccccc7)c6C(C)(C)[C@@H]5CC[C@]43C)[C@@H]12,Insoluble

# The remaining lines, values ahead:
row,solubility,Structure (SMILES)
1,Insoluble,CC1(C)CC[C@]23CC[C@]4(C)[C@H](CC[C@@H]5[C@@]6(C)Cc7c(n[nH]c7O)C(C)(C)[C@@H]6CC[C@]54C)[C@H]2[C@H]1OC3
2,Insoluble,CC(C)[C@@H]1CC[C@]2(C(=O)O)CC[C@]3(C)[C@H](CC[C@@H]4[C@@]5(C)Cc6sc(Br)nc6C(C)(C)[C@@H]5CC[C@]43C)[C@@H]12
3,Insoluble,CC1(C)CC[C@]23CC[C@]4(C)[C@H](CC[C@@H]5[C@@]6(C)Cc7cnoc7C(C)(C)[C@@H]6CC[C@]54C)[C@H]2[C@H]1OC3

# Tested on: CCRF-CEM
# Assay: Cytotoxicity against human CCRF-CEM cells after 72 hrs by MTT assay
# Format: functional, cell-based
# Conditions: not given
row,Structure (SMILES),IC50
1,CC(C)[C@@H]1CC[C@]2(C(=O)O)CC[C@]3(C)[C@H](CC[C@@H]4[C@@]5(C)Cc6c(n[nH]c6O)C(C)(C)[C@@H]5CC[C@]43C)[C@@H]12,123 µM
2,"C=C(C)[C@@H]1CC[C@]2(C(=O)O)CC[C@]3(C)[C@H](CC[C@@H]4[C@@]5(C)Cc6c(n[nH]c6O)C(C)(C)C5CC[C@]43C)[C@@H]12 (single isomer, unassigned)",22 µM
3,C=C(C)[C@@H]1CC[C@]2(C(=O)O)CC[C@]3(C)[C@H](CC[C@@H]4[C@@]5(C)Cc6cnn(-c7ccccc7)c6C(C)(C)[C@@H]5CC[C@]43C)[C@@H]12,31 µM
4,CC1(C)CC[C@]23CC[C@]4(C)[C@H](CC[C@@H]5[C@@]6(C)Cc7c(n[nH]c7O)C(C)(C)[C@@H]6CC[C@]54C)[C@H]2[C@H]1OC3,33 µM
5,CC(C)[C@@H]1CC[C@]2(C(=O)O)CC[C@]3(C)[C@H](CC[C@@H]4[C@@]5(C)Cc6cnn(-c7ccccc7)c6C(C)(C)[C@@H]5CC[C@]43C)[C@@H]12,45 µM
6,CC(C)[C@@H]1CC[C@]2(C(=O)O)CC[C@]3(C)[C@H](CC[C@@H]4[C@@]5(C)Cc6sc(Br)nc6C(C)(C)[C@@H]5CC[C@]43C)[C@@H]12,11 µM
7,CC1(C)CC[C@]23CC[C@]4(C)[C@H](CC[C@@H]5[C@@]6(C)Cc7cnoc7C(C)(C)[C@@H]6CC[C@]54C)[C@H]2[C@H]1OC3,> 250 µM
